This note sets out measurements from US12721838B2 (Henry Ford Health System, priority 2020, dated 2026).

The assay concerns the target T1, Trib2-Luciferase (Luc-Trib2) fusion (Homo sapiens, UniProt Q92519).
T1 sequence (Q92519 with tags, fused parts or gaps): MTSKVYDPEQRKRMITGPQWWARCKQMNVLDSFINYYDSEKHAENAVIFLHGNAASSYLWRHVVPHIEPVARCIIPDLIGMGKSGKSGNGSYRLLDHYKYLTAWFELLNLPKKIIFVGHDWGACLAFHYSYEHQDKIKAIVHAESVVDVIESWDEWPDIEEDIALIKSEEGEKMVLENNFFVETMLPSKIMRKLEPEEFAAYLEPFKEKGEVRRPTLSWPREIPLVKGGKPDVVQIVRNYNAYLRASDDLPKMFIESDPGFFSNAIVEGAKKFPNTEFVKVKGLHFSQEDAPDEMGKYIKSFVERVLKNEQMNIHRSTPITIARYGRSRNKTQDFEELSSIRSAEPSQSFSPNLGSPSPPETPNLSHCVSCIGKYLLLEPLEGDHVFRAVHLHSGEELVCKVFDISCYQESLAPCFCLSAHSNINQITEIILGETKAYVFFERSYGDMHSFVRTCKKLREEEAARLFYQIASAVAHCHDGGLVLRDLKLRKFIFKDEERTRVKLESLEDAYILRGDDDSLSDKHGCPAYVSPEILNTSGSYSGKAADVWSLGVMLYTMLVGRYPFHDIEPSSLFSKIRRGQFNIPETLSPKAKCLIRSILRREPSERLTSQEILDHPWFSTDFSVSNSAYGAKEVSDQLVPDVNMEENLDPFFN
As to the kind of experiment: cell-based. To be noted: HFF, read-out: Luciferase activity (%).
Take `CCCOc1ccc(C(=O)OCCN(CC)CC)cc1N` [Proparacaine]: the activity at 10 µM was 88%.
With `COC(=O)C1=C(C#N)NC(C)=C(C(=O)OC(C)C)C1c1cccc([N+](=O)[O-])c1` (stereo not shown) [Nilvadipine] the figure was 89%; with `CCOC(=O)[C@@H](N)Cc1ccc(-c2cc(O[C@H](c3ccc(Cl)cc3-n3ccc(C)n3)C(F)(F)F)nc(N)n2)cc1` [Telotristat etiprate], 94%; with `Nc1ccc(S(=O)(=O)Nc2ncccn2)cc1` [Sulfadiazine], 70%.
Turning to `Cc1ccc(C(=O)Nc2ccc(CN3CCN(C)CC3)c(C(F)(F)F)c2)cc1C#Cc1cnc2cccnn12` [Ponatinib], the activity at 10 µM stood at 42%.
With `CN1C(=O)COc2c(C(=O)NC3CN4CCC3CC4)cc(Cl)cc21` (stereo not shown) [Azasetron] the figure was 100%; with `CN(C)[C@@H](CCOc1cccc2ccccc12)c1ccccc1` [Dapoxetine], 88%; with `CC[C@]12CCCN3CCc4c(n(c5ccccc45)[C@@](O)(C(=O)OC)C1)[C@@H]32` [Vincamine], 80%.
The same measure for `COc1ccc(CN2CCNCC2)c(OC)c1OC` [Trimetazidine]: 100%; for `NC(N)=Nc1nc(CSCCC(N)=NS(N)(=O)=O)cs1` [Famotidine]: 100%.
The same measure for `CCCCc1nc(C)c(CC(=S)N(C)C)c(=O)n1Cc1ccc(-c2ccccc2-c2nnn[nH]2)cc1` [Fimasartan]: 88%.
In the case of `O=C(O)CCCc1ccc(N(CCCl)CCCl)cc1` [Chlorambucil], the activity at 10 µM worked out at 96%.
Turning to `Cc1cn([C@@H]2C[C@@H](O)[C@H](CO)O2)c(=O)[nH]c1=O` [Telbivudine], the activity at 10 µM came to 91%.
As for `Cc1ccccc1C(=O)Nc1ccc(C(=O)N2CCCC(N(C)C)c3ccccc32)cc1` (stereo not shown) [Mozavaptan], the activity at 10 µM worked out at 86%.
With `CCOC(=O)CC(SP(=S)(OC)OC)C(=O)OCC` (stereo not shown) [Malathion] the figure was 91%.
On to `CCCc1nc(C(C)(C)O)c(C(=O)O)n1Cc1ccc(-c2ccccc2-c2nnn[nH]2)cc1` [Olmesartan], for which the activity at 10 µM came to 80%.
In the case of `NCCC[C@H](NC(=O)[C@@H]1CCCN1C(=O)[C@@H]1CSSC[C@H](N)C(=O)N[C@@H](Cc2ccc(O)cc2)C(=O)N[C@@H](Cc2ccccc2)C(=O)N[C@@H](CCC(N)=O)C(=O)N[C@@H](CC(N)=O)C(=O)N1)C(=O)NCC(N)=O` [Ornipressin], the activity at 10 µM was 27%.
As for `COc1ccccc1OCC(O)CN1CCN(CC(=O)Nc2c(C)cccc2C)CC1` (stereo not shown) [Ranolazine], the activity at 10 µM is 100%.
`C[C@]12C=CC(=O)C=C1CC[C@H]1[C@@H]3C[C@@H](O)[C@](O)(C(=O)CO)[C@@]3(C)C[C@H](O)[C@@]12F` [Triamcinolone]: the activity at 10 µM came out at 72%.
On to `CN1[C@@H]2CC[C@H]1C[C@@H](OC(=O)C(CO)c1ccccc1)C2` (stereo partly shown) [Atropine], for which the activity at 10 µM amounted to 67%.
In the case of `CC1(C)S[C@@H]2[C@H](NC(=O)[C@H](C(=O)O)c3ccsc3)C(=O)N2[C@H]1C(=O)O` [Ticarcillin], the activity at 10 µM is 87%.
For `Cc1cccc(C)c1OCC(C)N` (stereo not shown) [Mexiletine], the activity at 10 µM stood at 86%.
With `Cc1cc(-c2ccccc2)nnc1NCCN1CCOCC1` [Minaprine] the figure was 79%; with `Cc1cn(-c2cc(NC(=O)c3ccc(C)c(Nc4nccc(-c5cccnc5)n4)c3)cc(C(F)(F)F)c2)cn1` [Nilotinib], 99%.
With `C=C[C@]1(C)C[C@@H](OC(=O)CSC(C)(C)CNC(=O)[C@H](N)C(C)C)[C@]2(C)[C@H](C)CC[C@]3(CCC(=O)[C@H]32)[C@@H](C)[C@@H]1O` [Valnemulin] the figure was 83%.
With `OC1(c2ccc(Cl)c(C(F)(F)F)c2)CCN(CCCC(c2ccc(F)cc2)c2ccc(F)cc2)CC1` [Penfluridol] the figure was 71%; with `CC[C@H]1OC(=O)[C@H](C)[C@@H](O[C@H]2C[C@@](C)(OC)[C@@H](O)[C@H](C)O2)[C@H](C)[C@@H](O[C@@H]2O[C@H](C)C[C@H](N(C)C)[C@H]2O)[C@](C)(O)C[C@@H](C)[C@@H]2N[C@@H](COCCOC)O[C@H]([C@H]2C)[C@]1(C)O` [Dirithromycin], 100%; with `COc1cc2nc(N3CCN(C(=O)c4ccco4)CC3)nc(N)c2cc1OC` [Prazosin], 49%.
In the case of `CCCCCCCCc1ccc(CCC(N)(CO)CO)cc1` [Fingolimod], the activity at 10 µM amounted to 80%.
With `CC(C)N1CCN(c2ccc(OCC3COC(Cn4cncn4)(c4ccc(Cl)cc4Cl)O3)cc2)CC1` (stereo not shown) [Terconazole] the figure was 82%; with `COc1cc(N)c(Cl)cc1C(=O)NC1CCN(Cc2ccccc2)CC1` [Clebopride], 100%; with `CCCOc1ccc(S(=O)(=O)NCCC2CCCN2C)cc1-c1nc2c(CCC)nn(C)c2c(=O)[nH]1` (stereo not shown) [Udenafil], 100%.
The same measure for `CN1C[C@@H]2C[C@H]1CN2c1cc2c(cc1F)c(=O)c(C(=O)O)cn2C1CC1` [Danofloxacin]: 81%.
With `CN(C)CCCN1c2ccccc2CCc2ccccc21` [Imipramine] the figure was 86%.
For the compound `Cn1c([N+](=O)[O-])cnc1COC(N)=O` [Ronidazole], the activity at 10 µM came out at 100%.
With `O=C(O)CCNC(=O)c1ccccc1` [Betamipron] the figure was 87%; with `CC(C)C(=O)c1c(C(C)C)nn2ccccc12` [Ibudilast], 85%.
With `COc1ccc2c(c1OC)C(=O)O[C@@H]2[C@H]1c2c(cc3c(c2OC)OCO3)CCN1C` [Noscapine], the activity at 10 µM came to 100%.
With `CC1(C)CCC(CN2CCN(c3ccc(C(=O)NS(=O)(=O)c4ccc(NCC5CCOCC5)c([N+](=O)[O-])c4)c(Oc4cnc5[nH]ccc5c4)c3)CC2)=C(c2ccc(Cl)cc2)C1` [Venetoclax], the activity at 10 µM turned out to be 184%.
The same measure for `C[C@@](Cc1ccc(O)c(O)c1)(NN)C(=O)O` [Carbidopa]: 92%; for `Cc1c(OCC(F)(F)F)ccnc1C[S+]([O-])c1nc2ccccc2[nH]1` (stereo not shown) [Lansoprazole]: 78%; for `CCCC1O[C@@H]2C[C@H]3[C@@H]4CCC5=CC(=O)C=C[C@]5(C)[C@H]4[C@@H](O)C[C@]3(C)[C@]2(C(=O)CO)O1` (stereo partly shown) [Budesonide]: 83%.
On to `N=C(N)NC(=O)Cc1c(Cl)cccc1Cl` [Guanfacine], for which the activity at 10 µM was found to be 100%.
For `O=C1CN2Cc3c(ccc(Cl)c3Cl)N=C2N1` [Anagrelide], the activity at 10 µM worked out at 92%.
For the compound `C[C@@H](CN1CC(=O)NC(=O)C1)N1CC(=O)NC(=O)C1` [Dexrazoxane], the activity at 10 µM was determined as 100%.
With `COc1cc([C@@H]2c3cc4c(cc3[C@@H](O[C@@H]3O[C@@H]5CO[C@@H](c6cccs6)O[C@H]5[C@H](O)[C@H]3O)[C@H]3COC(=O)[C@H]23)OCO4)cc(OC)c1O` [Teniposide] the figure was 70%.
The same measure for `CCc1c2c(nc3ccc(OC(=O)N4CCC(N5CCCCC5)CC4)cc13)-c1cc3c(c(=O)n1C2)COC(=O)[C@]3(O)CC` [Irinotecan]: 85%; for `CC(=O)OC(C)C[N+](C)(C)C` (stereo not shown) [Methacholine]: 99%.
As for `CC(=O)OCC(=O)[C@@]12OC(C)(C)O[C@@H]1C[C@H]1[C@@H]3C[C@H](F)C4=CC(=O)C=C[C@]4(C)[C@@]3(F)[C@@H](O)C[C@@]12C` [Fluocinonide], the activity at 10 µM was 78%.
